Experimental data as given in US8815577B2, “Assay electrode having immobilized lipid/protein layers, methods of making the same and methods of using the same for luminescence test measurements” (Meso Scale Technologies, LLC, priority 2001, dated 2014).

Experiments:
EGFR in A431 cells [1] = assay: Measuring of EGFR activation dependent phosphorylation (prophetic); assay type: cell-based; conditions: membrane fragments of EGF-activated A431 cells
Text: Activation of EGFR leads to its autophosphorylation. The cells are lysed as described in Example 1.2 to form cell membrane fragments (and, preferably, purified by centrifugation). The cell membrane fragments are immobilized on carbon electrodes integrated into the multi-well plates by passive adsorption or specific binding to a capture reagent previously immobilized on the electrode (e.g., wheat germ agglutinin, anti-EGFR, or another antibody specific for a membrane component, preferably, an epitope found on the cytoplasmic side) (as described in Example 1.3). The immobilized membrane fragments are treated with a buffered solution containing a STAG-labeled anti-phosphotyrosine antibody. In an alternate protocol, the membranes and antibody are premixed prior to addition of the membranes to the wells. A buffered tripropylamine solution is introduced to the well and ECL is induced and measured as described in Example 1.4.

EGFR in A431 cells [2] = assay: Measurement of EGFR activation dependent binding events (prophetic); assay type: cell-based; conditions: membrane fragments of EGF-activated A431 cells
Text: Activation of the EGFR leads to autophosphorylation of EGFR followed by the sequential binding of shc to EGFR and grb-2 to shc. The cells are lysed as described in Example 1.2 to form cell membrane fragments (and, preferably, purified by centrifugation). The cell membrane fragments are immobilized on carbon electrodes integrated into the multi-well plates by passive adsorption (as described in Example 1.3) or specific binding to a capture reagent immobilized on the electrode (e.g., wheat germ agglutinin, anti-EGFR, or another antibody specific for a membrane component, preferably, an epitope found on the cytoplasmic side). The immobilized membrane fragments are treated with a buffered solution containing an STAG-labeled antibody directed against shc or grb-1. In an alternate protocol, the membranes and antibody are premixed prior to addition of the membranes to the wells. A buffered tripropylamine solution is introduced into the well and ECL is induced and measured as described in Example 1.4.

[3] = system: tyrosine phosphatase activity / phosphotyrosine content in U2-OS cells; assay: Cellular phosphotyrosine content in fixed U2-OS cells grown on carbon electrode, ECL detection (tyrosine phosphatase inhibition); assay type: cell-based; conditions: 1 mM, 30 minute incubation
Protocol: U2-OS cells were grown in non-plasma treated Multi-Array plates using the growth conditions recommended by the American Type Culture Collection (ATCC reference number HTB-96). The plates were partially sterilized beforehand by illumination with a high energy UV light (Strata Linker Model 2400, Stratagene) set to deliver 9999 joules to the plate surface over the course of 5 minutes. Approximately 10,000 trypsinized cells were dispensed to each well of the 96 well plate in 100 μl of tissue culture media (see ATCC reference above) and incubated overnight in a cell culture incubator (at 37° C. in a humidified atmosphere containing 5% CO2) to promote attachment of the cells to the electrode surface.
Per-Vanadate, a tyrosine phosphatase inhibitor was added to a some of the wells to give a final concentration of 1 mM in those wells. […]
Phosphotyrosine containing proteins were detected by incubating the wells for one hour in 90 μl of PBS/FBS containing an anti-phosphotyrosine monoclonal antibody (100 ng/mL) and an anti-mouse secondary antibody (200 ng/mL) that was labeled with ruthenium-tris-bipyridine (ORI-TAG NHS Ester, IGEN International). […] ECL Assay Buffer was added (150 μl of OriGlo Plus, IGEN International) and the plate was analyzed using a Sector HTS instrument.

[4] = target: melanocortin 5 receptor (MC5) (Homo sapiens, UniProt P33032); conditions: at the higher concentrations
Chain of melanocortin 5 receptor (MC5) (P33032 whole entry): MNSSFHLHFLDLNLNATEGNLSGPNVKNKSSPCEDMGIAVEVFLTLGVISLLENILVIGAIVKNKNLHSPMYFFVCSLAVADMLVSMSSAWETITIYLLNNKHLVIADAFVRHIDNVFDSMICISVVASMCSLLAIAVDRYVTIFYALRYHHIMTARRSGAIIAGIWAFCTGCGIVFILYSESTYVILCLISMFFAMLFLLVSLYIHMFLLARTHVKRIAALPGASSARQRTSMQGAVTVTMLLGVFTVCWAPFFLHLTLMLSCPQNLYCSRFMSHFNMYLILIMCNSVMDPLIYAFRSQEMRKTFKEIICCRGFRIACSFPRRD
Protocol: The membrane fragments came from HEK-293 cells that were transformed to express MC5.
Pure PHA-E was passively adsorbed onto the working electrode of plasma-treated Multi-Array 384-well plates by dispensing PHA-E (10 pmol per well) in PBS (5 μL per well) into the wells of the plate. Plates were sealed and incubated for 1 h at ambient temperature. Following the incubation, 3% BSA blocking solution was added (65 μL per well) and the plates were sealed and incubated for 1 h at room temperature. Plates were washed 4 times with PBS and dried. MC5 containing membrane fragments were immobilized in the plates using the procedure described in Example 2.3.1 except that in this case the immobilization occurred via lectin-sugar interactions.
In this Example, MC5 containing membrane fragments were immobilized on the electrode surface of plasma treated Multi-Array 96 well plates (Meso Scale Discovery) by capture on a passively adsorbed layer of pure Pokeweed Mitogen according to an immobilization protocol analogous to that described in the Example 2.3.2. […] The fluid in the wells was then removed and 150 μL of a buffered detergent-free solution of tripropylamine (MSD Assay Buffer T, surfactant free, Meso Scale Discovery) was added. ECL from the wells was measured using a Sector HTS plate reader.

EGF: epidermal growth factor, ligand of EGFR (NSDSECPLSHDGYCLHDGVCMYIEALDKYACNCVVGYIGERCQYRDLKWWELR; not fully specified; Epidermal growth factor; UniProt P01133 971-1023, looked up)
ECL signal (STAG-labeled anti-phosphotyrosine antibody) versus control A431 cells not exposed to EGF (EGFR in A431 cells [1]): greater | ECL signal (STAG-labeled antibody against shc or grb-1) versus control A431 cells not exposed to EGF (EGFR in A431 cells [2]): greater

Per-vanadate
ECL signal after subtraction of background, relative to untreated cells [3]: more than three times higher | Average ECL signal (anti-phosphotyrosine antibody) ([3]; n=4): 7690.0

[Nle4,D-Phe7]-α-melanocyte-stimulating hormone [NDP-α-MSH]
inhibition of the binding of NDP-α-MSH-TAG to MC5 [4]: almost complete
